In ChEMBL document CHEMBL5058564, “EUbOPEN Chemogenomics Library 2 (Incucyte)” (2022):

Experiments:
Format in all cases: toxicity, cell-based
Fibroblast = assay: Incucyte cell viability with human fibroblast; conditions: 10 µM, compound concentration 10 uM
HEK-293T = assay: Incucyte cell viability with HEK293T; conditions: human, 10 µM, compound concentration 10 uM
U2OS = assay: Incucyte cell viability with U2OS; conditions: human, 10 µM, compound concentration 10 uM
[1] = 0 h, replicate number 2, timepoint 0 hours
[2] = 6 h, replicate number 1, timepoint 6 hours
[3] = 6 h, replicate number 2, timepoint 6 hours
[4] = 12 h, replicate number 1, timepoint 12 hours
[5] = 12 h, replicate number 2, timepoint 12 hours
[6] = 18 h, replicate number 1, timepoint 18 hours
[7] = 0 h, replicate number 1, timepoint 0 hours
[8] = 18 h, replicate number 2, timepoint 18 hours
[9] = 24 h, replicate number 1, timepoint 24 hours
[10] = 24 h, replicate number 2, timepoint 24 hours
Note: unitless GR value; below 1 slowed growth and below 0 cell loss.

| SMILES | Growth Rate (Fibroblast; [1]) | Growth Rate (Fibroblast; [2]) | Growth Rate (Fibroblast; [3]) | Growth Rate (Fibroblast; [4]) | Growth Rate (Fibroblast; [5]) | Growth Rate (Fibroblast; [6]) | Growth Rate (HEK-293T; [7]) | Growth Rate (HEK-293T; [1]) | Growth Rate (HEK-293T; [4]) | Growth Rate (HEK-293T; [5]) | Growth Rate (HEK-293T; [6]) | Growth Rate (HEK-293T; [9]) | Growth Rate (HEK-293T; [10]) | Growth Rate (U2OS; [1]) | Growth Rate (U2OS; [7]) | Growth Rate (U2OS; [2]) | Growth Rate (U2OS; [4]) | Growth Rate (U2OS; [6]) | Growth Rate (Fibroblast; [9]) | Growth Rate (HEK-293T; [2]) | further results |
| --- | --- | --- | --- | --- | --- | --- | --- | --- | --- | --- | --- | --- | --- | --- | --- | --- | --- | --- | --- | --- | --- |
| CCCN[C@H]1CCc2nc(N)sc2C1.Cl.Cl | -0.13 | -0.38 | 0.73 | 0.31 | 0.7 | 0.84 | 0.73 | 0.77 | 0.99 | 0.53 | 0.97 | 0.93 | 0.81 | 0.18 | – | – | – | – | – | – | Growth Rate (HEK-293T; [3]): 0.07; Growth Rate (HEK-293T; [8]): 0.77; Growth Rate (U2OS; [5]): 0.97; Growth Rate (U2OS; [8]): 0.92 |
| O=C(O)c1ccccc1S(=O)(=O)NCCCCN1C(=O)c2cccc3cccc(c23)C1=O | 0.58 | – | 0.71 | – | 0.94 | 0.79 | 0.54 | 0.31 | 0.9 | 0.98 | 0.82 | 0.91 | – | -0.33 | 0.34 | 0.57 | 0.82 | 0.78 | – | – | Growth Rate (Fibroblast; [7]): 0.28; Growth Rate (HEK-293T; [8]): 0.89; Growth Rate (U2OS; [3]): 0.12; Growth Rate (U2OS; [5]): 0.64; Growth Rate (U2OS; [8]): 0.75; Growth Rate (U2OS; [9]): 0.67; Growth Rate (U2OS; [10]): 0.75 |
| CC(C)CCC[C@@H](C)[C@H]1CC[C@H]2[C@@H]3[C@H](O)C=C4C[C@@H](O)CC[C@]4(C)[C@H]3CC[C@]12C | -0.09 | 0.24 | 0.56 | 0.24 | 0.91 | 0.52 | 0.95 | -0.21 | – | – | 0.84 | 0.85 | 0.96 | 0.03 | – | 0.98 | – | – | 0.5 | – | Growth Rate (Fibroblast; [8]): 0.84; Growth Rate (Fibroblast; [10]): 0.43 |
| Br.Br.c1ncc(CC2CCNCC2)[nH]1 | 0.06 | 0.88 | 0.53 | 0.69 | 0.81 | 0.72 | 0.53 | 0.07 | 0.99 | 0.73 | 0.81 | 0.95 | 0.94 | – | 0.94 | 0.57 | 0.9 | – | 0.77 | 0.8 | Growth Rate (Fibroblast; [7]): 0.49; Growth Rate (Fibroblast; [8]): 0.93; Growth Rate (Fibroblast; [10]): 0.76; Growth Rate (HEK-293T; [8]): 0.93 |
| CN(C)CCn1cc(S(=O)(=O)c2cccc(F)c2)c2cccnc21.Cl.Cl | 0.07 | -0.17 | 0.86 | 0.56 | 0.68 | 0.65 | 0.41 | 0.35 | – | – | – | – | – | – | – | 0.56 | 0.39 | 0.8 | 0.75 | – | Growth Rate (Fibroblast; [7]): -0.06; Growth Rate (Fibroblast; [8]): 0.64; Growth Rate (Fibroblast; [10]): 0.57; Growth Rate (HEK-293T; [3]): 0.9; Growth Rate (U2OS; [3]): 0.76; Growth Rate (U2OS; [5]): 0.98; Growth Rate (U2OS; [9]): 0.86 |
| CCCN(CCC)[C@@H]1CCc2ccc3[nH]c(C#N)cc3c2C1.Cl | -0.06 | 0.01 | – | – | – | 0.97 | 0.55 | 0.54 | 0.81 | – | – | 1 | 0.95 | 0.9 | 0.61 | 0.8 | – | 0.73 | 0.95 | 0.81 | Growth Rate (U2OS; [9]): 0.95 |
| COC(=O)[C@H](CCCNC(=N)N)NC(=O)CCCc1c(-c2ccccc2)[nH]c2c(F)cc(F)cc12.O=C(O)C(F)(F)F | 0.86 | – | 0.39 | – | 0.65 | – | 0.87 | 0.81 | 0.53 | 0.32 | 0.64 | 0.66 | 0.53 | – | -0.03 | 0.46 | 0.64 | 0.8 | – | 0.68 | Growth Rate (Fibroblast; [7]): 0.79; Growth Rate (Fibroblast; [8]): 0.38; Growth Rate (Fibroblast; [10]): 0.46; Growth Rate (HEK-293T; [3]): 0.4; Growth Rate (HEK-293T; [8]): 0.5 |
| N=C(N)NCCC[C@H](NC(=O)COCC(c1ccccc1)c1ccccc1)C(=O)O.O=C(O)C(F)(F)F | 0.91 | 0.91 | – | 0.66 | – | 0.46 | 0.96 | 0.2 | 0.7 | – | 0.84 | – | – | 0.34 | 0.29 | 0.54 | 0.84 | 0.7 | 0.79 | 1 | Growth Rate (U2OS; [3]): 0.72; Growth Rate (U2OS; [5]): 0.86; Growth Rate (U2OS; [8]): 0.91; Growth Rate (U2OS; [9]): 0.8; Growth Rate (U2OS; [10]): 1 |
| CC1(C)SSC(C)(C)[C@@H](NC(=O)[C@@H](N)Cc2ccc(O)cc2)C(=O)NCC(=O)N[C@@H](Cc2ccccc2)C(=O)N[C@H]1C(=O)O.O=C(O)C(F)(F)F | 0.08 | 0.67 | – | – | – | – | 0.77 | – | – | 0.85 | 0.85 | – | – | -0.57 | – | – | – | – | 0.94 | 0.73 | Growth Rate (Fibroblast; [7]): 0.24; Growth Rate (U2OS; [3]): 0.94; Growth Rate (U2OS; [8]): 0.98; Growth Rate (U2OS; [10]): 0.94 |
| O=C([O-])[C@H]1O[C@H](OP(=O)([O-])OP(=O)([O-])OC[C@H]2O[C@@H](n3ccc(=O)[nH]c3=O)[C@H](O)[C@@H]2O)[C@H](O)[C@@H](O)[C@@H]1O.[Na+].[Na+].[Na+] | 0.57 | – | – | – | – | 0.88 | 0.81 | -0.02 | 0.65 | – | 0.64 | 0.84 | 0.91 | 0.71 | 0.32 | 0.46 | 0.9 | 0.9 | 0.93 | 0.43 | – |
